Test results from US11208391B2, “Polymorphs and new path to synthesize Tafamidis” (AZAD PHARMA AG, priority 2018, dated 2021).

Assay: Pressure resistance of the crystalline form (hydraulic press, then PXRD/DSC)
Format: physicochemical
Conditions: pressed 3-5 seconds at 1.5 MPa, Perkin Elmer hydraulic press, 13 mm stamp, material of method 1 (pentane/heptane), compared with non-pressed form
Experimental: The diffraction measurements were performed at ambient conditions on a PANalytical X'Pert PRO θ-θ diffractometer of 240 mm of radius in reflection geometry, equipped with Cu Kα radiation and a PIXcel detector, operated at 45 kV and 40 mA. Each sample was mounted on a zero-background silicon holder and allowed to spin at 0.25 rev/s during data collection. The measurement angular range was 3.0-40.0° (2θ) with a step size of 0.013°. The scanning speed was 0.0821°/s (40.80 s/step).
Dry samples were pressed at the indicated pressures in a Perkin Elmer hydraulic press using a 13 mm stamp for a time period of 3-5 seconds.
The dried filter cake obtained by the above described method 1 was pressed for 3-5 seconds at 1.5 MPa using a Perkin Elmer hydraulic press and 13 mm tableting stamp. The resulting material was subjected to a DSC and a PXRD-experiment. The results are depicted in FIG. 13 (DSC) and FIG. 14 (PXRD). […] This feature renders this polymorph suitable for processing in the course of tableting, especially.

CNC[C@H](O)[C@@H](O)[C@H](O)[C@H](O)CO.O=C(O)c1ccc2nc(-c3cc(Cl)cc(Cl)c3)oc2c1 [crystalline Tafamidis meglumine, 2-(3,5-dichlorophenyl)-1,3-benzoxazole-6-carboxylic acid * (2R,3R,4R,5S)-6-(methyl-amino)-hexane-1,2,3,4,5-pentol]
PXRD diffraction pattern / structure of the crystalline form upon pressure treatment: does not change upon pressure treatment | PXRD diffraction pattern / structure of the crystalline form upon pressure treatment (listed as crystalline form): insensitive to pressure
